Measured values: patent EP0908457B1, “3-(1,2-benzisothiazol- and isoxazol-5-Y1)-2,4(1H,3H)-pyrimidinedione or thione and 3-(1,2-benzisothiazol- and isoxazol-5-y1)-4(3H)-pyrimidinone or thione herbicidal agents” (BASF AKTIENGESELLSCHAFT, priority 1997, dated 1999)

How the values were obtained:
Assay type in all cases: in vivo
[1] = tested on: Echinochloa oryzoides (Ard.) Fritsch.; assay: Preemergence weed control under flooded paddy conditions, ECHORC (Watergrass (Calif.)); conditions: flooded paddy; for ECHORC: herbicidal effect rating 0-9, three to four weeks after treatment; for herbicidal effect rating, ECHORC / ECHORC herbicidal rating: rated three to four weeks after treatment; as to herbicidal effect rating, ECHORC: meaning of each grade not given here
Cyperus iria = assay: Preemergence weed control under flooded paddy conditions, CYPIR (Rice Flatsedge); conditions: flooded paddy; for CYPIR: herbicidal effect rating 0-9, three to four weeks after treatment; for herbicidal effect rating, CYPIR / CYPIR herbicidal rating: rated three to four weeks after treatment; as to herbicidal effect rating, CYPIR: meaning of each grade not given here
[2] = tested on: Cyperus serotinus, Rottb.; assay: Preemergence weed control under flooded paddy conditions, CYPSE (Flatsedge); conditions: for CYPSE: herbicidal effect rating 0-9, three to four weeks after treatment; for herbicidal effect rating, CYPSE / CYPSE herbicidal rating: rated three to four weeks after treatment; as to herbicidal effect rating, CYPSE: meaning of each grade not given here
[3] = tested on: Monochoria vaginalis, Presl.; assay: Preemergence weed control under flooded paddy conditions, MOOVA (Monochoria); conditions: flooded paddy; for MOOVA: herbicidal effect rating 0-9, three to four weeks after treatment; for herbicidal effect rating, MOOVA / MOOVA herbicidal rating: rated three to four weeks after treatment; as to herbicidal effect rating, MOOVA: meaning of each grade not given here
Sagittaria pygmaea, L. = assay: Preemergence weed control under flooded paddy conditions, SAGPY (Arrowhead (Pygmaea)); conditions: flooded paddy; for SAGPY: herbicidal effect rating 0-9, three to four weeks after treatment; for herbicidal effect rating, SAGPY / SAGPY herbicidal rating: rated three to four weeks after treatment; as to herbicidal effect rating, SAGPY: meaning of each grade not given here
[4] = 0.0320 kg/ha, preemergence weeds
[5] = 0.0620 kg/ha, preemergence weeds
[6] = 0.1250 kg/ha, preemergence weeds
[7] = Rate 0.2500 kg/ha, preemergence
[8] = Rate 0.0320 kg/ha, preemergence weeds
[9] = Rate 0.0620 kg/ha, preemergence weeds
[10] = Rate 0.1250 kg/ha, preemergence weeds
[11] = Rate 0.2500 kg/ha, preemergence weeds
[12] = 0.2500 kg/ha, preemergence weeds

`CONC(=O)c1nsc2ccc(-n3c(=O)cc(C(F)(F)F)n(C)c3=O)cc12` [Example 403, 1,2-Benzisothiazole-3-carboxamide, 5-[3,6-dihydro-3-methyl-2,6-dioxo-4-(trifluoromethyl)-1(2H)-pyrimidinyl]-N-methoxy-] was tested. Which ECHORC [1, 4] did it give?
Its ECHORC is 0.0.

And the ECHORC [1, 5]?
The ECHORC was 2.0.

And the ECHORC [1, 6]?
The ECHORC was 4.0.

What about the “herbicidal effect rating, ECHORC” value [1, 7] of the same compound?
The value was 4.0.

What about the CYPIR (Cyperus iria; [4]) of the same compound?
The CYPIR was 5.0.

And the CYPIR (Cyperus iria; [5])?
The CYPIR was 6.0.

And the CYPIR (Cyperus iria; [6])?
Its CYPIR is 7.0.

What about the “herbicidal effect rating, CYPIR” value (Cyperus iria; [7]) of the same compound?
Its value is 9.0.

What about the CYPSE [2, 4] of the same compound?
Its CYPSE is 0.0.

What about the CYPSE [2, 5] of the same compound?
The CYPSE was 0.0.

What about the CYPSE [2, 6] of the same compound?
Its CYPSE is 2.0.

And the “herbicidal effect rating, CYPSE” value [2, 7]?
The value was 4.0.

And the MOOVA [3, 4]?
Its MOOVA is 7.0.

And the MOOVA [3, 5]?
Its MOOVA is 6.0.

What about the MOOVA [3, 6] of the same compound?
Its MOOVA is 9.0.

What about the “herbicidal effect rating, MOOVA” value [3, 7] of the same compound?
The value was 9.0.

What about the SAGPY (Sagittaria pygmaea, L.; [4]) of the same compound?
The SAGPY was 3.0.

What about the SAGPY (Sagittaria pygmaea, L.; [5]) of the same compound?
Its SAGPY is 9.0.

What about the SAGPY (Sagittaria pygmaea, L.; [6]) of the same compound?
The SAGPY was 9.0.

What about the “herbicidal effect rating, SAGPY” value (Sagittaria pygmaea, L.; [7]) of the same compound?
The value was 9.0.

What does the source list for `Cn1c(C(F)(F)F)cc(=O)n(-c2ccc3snc(CO[N+](=O)[O-])c3c2)c1=O` [Example 310, 2,4(1H,3H)-Pyrimidinedione, 3-[3-(hydroxymethyl)-1,2-benzisothiazol-5-yl]-1-methyl-6-(trifluoromethyl)-, nitrate (ester)]?
herbicidal effect rating, ECHORC [1, 8]: 0.0; herbicidal effect rating, ECHORC [1, 9]: 0.0; herbicidal effect rating, ECHORC [1, 10]: 2.0; herbicidal effect rating, ECHORC [1, 11]: 3.0; herbicidal effect rating, CYPIR (Cyperus iria; [8]): 9.0; herbicidal effect rating, CYPIR (Cyperus iria; [9]): 9.0; herbicidal effect rating, CYPIR (Cyperus iria; [10]): 9.0; herbicidal effect rating, CYPIR (Cyperus iria; [11]): 9.0; herbicidal effect rating, CYPSE [2, 8]: 0.0; herbicidal effect rating, CYPSE [2, 9]: 0.0; herbicidal effect rating, CYPSE [2, 10]: 0.0; herbicidal effect rating, CYPSE [2, 11]: 0.0; herbicidal effect rating, MOOVA [3, 8]: 9.0; herbicidal effect rating, MOOVA [3, 9]: 9.0; herbicidal effect rating, MOOVA [3, 10]: 9.0; herbicidal effect rating, MOOVA [3, 11]: 9.0; herbicidal effect rating, SAGPY (Sagittaria pygmaea, L.; [8]): 0.0; herbicidal effect rating, SAGPY (Sagittaria pygmaea, L.; [9]): 0.0; herbicidal effect rating, SAGPY (Sagittaria pygmaea, L.; [10]): 0.0; herbicidal effect rating, SAGPY (Sagittaria pygmaea, L.; [11]): 0.0

How did the ECHORC herbicidal rating ([1]; 0.0320 kg/ha, preemergence) turn out when `CCC(C(=O)OCc1nsc2ccc(-n3c(=O)cc(C(F)(F)F)n(C)c3=O)cc12)c1ccccc1` (centres unmarked) [Example 473, 2,4(1H,3H)-Pyrimidinedione, 3-[3-(hydroxymethyl)-1,2-benzisothiazol-5-yl]-1-methyl-6-(trifluoromethyl)-, 2-phenylbutyrate (ester)] was run?
The ECHORC herbicidal rating was 1.0.

And the ECHORC herbicidal rating ([1]; 0.0620 kg/ha, preemergence)?
The ECHORC herbicidal rating was 2.0.

What about the ECHORC herbicidal rating ([1]; 0.1250 kg/ha, preemergence) of the same compound?
Its ECHORC herbicidal rating is 2.0.

What about the ECHORC herbicidal rating ([1]; 0.2500 kg/ha, preemergence) of the same compound?
Its ECHORC herbicidal rating is 4.0.

And the CYPIR herbicidal rating (Cyperus iria; 0.0320 kg/ha, preemergence)?
Its CYPIR herbicidal rating is 2.0.

And the CYPIR herbicidal rating (Cyperus iria; 0.0620 kg/ha, preemergence)?
The CYPIR herbicidal rating was 4.0.

What about the CYPIR herbicidal rating (Cyperus iria; 0.1250 kg/ha, preemergence) of the same compound?
Its CYPIR herbicidal rating is 6.0.

What about the CYPIR herbicidal rating (Cyperus iria; 0.2500 kg/ha, preemergence) of the same compound?
Its CYPIR herbicidal rating is 8.0.

And the CYPSE herbicidal rating ([2]; 0.0320 kg/ha, preemergence)?
The CYPSE herbicidal rating was 0.0.

And the CYPSE herbicidal rating ([2]; 0.0620 kg/ha, preemergence)?
The CYPSE herbicidal rating was 0.0.

What about the CYPSE herbicidal rating ([2]; 0.2500 kg/ha, preemergence) of the same compound?
Its CYPSE herbicidal rating is 5.0.

And the MOOVA herbicidal rating ([3]; 0.0320 kg/ha, preemergence)?
Its MOOVA herbicidal rating is 4.0.

What about the MOOVA herbicidal rating ([3]; 0.0620 kg/ha, preemergence) of the same compound?
The MOOVA herbicidal rating was 6.0.

And the MOOVA herbicidal rating ([3]; 0.1250 kg/ha, preemergence)?
The MOOVA herbicidal rating was 7.0.

What about the MOOVA herbicidal rating ([3]; 0.2500 kg/ha, preemergence) of the same compound?
Its MOOVA herbicidal rating is 7.0.

And the SAGPY herbicidal rating (Sagittaria pygmaea, L.; 0.0320 kg/ha, preemergence)?
Its SAGPY herbicidal rating is 0.0.

And the SAGPY herbicidal rating (Sagittaria pygmaea, L.; 0.0620 kg/ha, preemergence)?
Its SAGPY herbicidal rating is 0.0.

What about the SAGPY herbicidal rating (Sagittaria pygmaea, L.; 0.1250 kg/ha, preemergence) of the same compound?
The SAGPY herbicidal rating was 2.0.

And the SAGPY herbicidal rating (Sagittaria pygmaea, L.; 0.2500 kg/ha, preemergence)?
The SAGPY herbicidal rating was 3.0.

`Cn1c(C(F)(F)F)cc(=O)n(-c2ccc3snc(C(SCCCO)SCCCO)c3c2)c1=O` [Example 424, 1,2-Benzisothiazole-3-carboxaldehyde, 5-[3,6-dihydro-3-methyl-2,6-dioxo-4-(trifluoromethyl)-1(2H)-pyrimidinyl]-, 3-[bis(3-hydroxypropyl)dithioacetal]] was tested. Which ECHORC [1, 4] did it give?
Its ECHORC is 0.0.

And the ECHORC [1, 5]?
Its ECHORC is 0.0.

What about the ECHORC [1, 6] of the same compound?
The ECHORC was 3.0.

And the ECHORC [1, 12]?
The ECHORC was 3.0.

And the CYPIR (Cyperus iria; [4])?
The CYPIR was 4.0.

What about the CYPIR (Cyperus iria; [5]) of the same compound?
The CYPIR was 5.0.

What about the CYPIR (Cyperus iria; [6]) of the same compound?
The CYPIR was 6.0.

And the CYPIR (Cyperus iria; [12])?
The CYPIR was 7.0.

What about the CYPSE [2, 6] of the same compound?
Its CYPSE is 3.0.

And the CYPSE [2, 12]?
Its CYPSE is 3.0.

What about the MOOVA [3, 4] of the same compound?
Its MOOVA is 7.0.

What about the MOOVA [3, 5] of the same compound?
The MOOVA was 9.0.

And the MOOVA [3, 6]?
Its MOOVA is 9.0.

What about the MOOVA [3, 12] of the same compound?
The MOOVA was 9.0.

And the SAGPY (Sagittaria pygmaea, L.; [4])?
Its SAGPY is 0.0.

And the SAGPY (Sagittaria pygmaea, L.; [5])?
Its SAGPY is 0.0.

And the SAGPY (Sagittaria pygmaea, L.; [6])?
The SAGPY was 0.0.

And the SAGPY (Sagittaria pygmaea, L.; [12])?
Its SAGPY is 0.0.
